Measurements published in BindingDB's records for doi:10.1021/jm058041z (University of Würzburg, 2005).

Assay: Inhibition of acetylcholinesterase

SMILES: Nc1c2c(nc3c(CO)cccc13)CCCC2 [9-amino-5,6,7,8-tetrahydroacridin-4yl)methano]
- IC50: 0.125 µM
